Columns and labels:
[1] = test system: PC-12; assay: Neuroprotective activity against oxygen-glucose deprivation-induced cell injury in rat PC12 cells assessed as cell viability; type: functional, cell-based
[2] = test system: PC-12; assay: Neuroprotective activity against oxygen-glucose deprivation-induced cell injury in rat PC12 cells assessed as cell viability at 1 uM; type: functional; details: read-out: Activity
[3] = test system: Aorta; assay: Vasorelaxant activity in rat aortic ring assessed as inhibition of phenylephrine-induced contraction; type: functional, tissue-based
[4] = test system: Aorta; assay: Vasorelaxant activity in rat aortic ring assessed as inhibition of phenylephrine-induced contraction relative to control; type: functional
[5] = test system: PC-12; assay: Neuroprotective activity against oxygen-glucose deprivation-induced cell injury in rat PC12 cells assessed as cell viability at 30 uM; type: functional; details: read-out: Activity

Row | EC50 [3] [µM] | Structure (SMILES) | Activity [1] | viability at 1 µM [2] [%] | Emax [4] [%] | viability at 30 µM [5] [%]
1 | 176 | CC(C)=CCc1c(O)cc(O)c2c(=O)cc(-c3ccc(O)cc3O)oc12 | Dose-dependent effect | 93.5 | 91.5 | –
2 | – | CC(C)=CCc1c(O)cc(O)c2c1OC(c1cccc(Br)c1)CC2=O (centres undefined) | – | 88.1 | – | –
3 | – | CC(C)=CCc1c(O)cc(O)c2c(=O)cc(-c3ccc(O)c(O)c3)oc12 | – | 91.5 | 62.5 | –
4 | – | CC(C)=CCc1c(O)cc(O)c2c(=O)cc(-c3ccc(O)c(O)c3O)oc12 | – | 88.6 | – | –
5 | 9.3 | CC(C)=CCc1c(O)cc(O)c2c1OC(c1ccc(O)cc1O)CC2=O (racemic) | Dose-dependent effect | 94.8 | 94.9 | –
6 | 72.7 | CC(C)=CCc1c(O)cc(O)c2c1OC(c1ccc(O)cc1)CC2=O (centres undefined) [SOPHORAFLAVANONE B] | – | 89.3 | 101 | –
7 | 25 | COc1cc(C2CC(=O)c3c(O)cc(O)c(CC=C(C)C)c3O2)cc(OC)c1OC (centres undefined) | – | 89.1 | 66.3 | –
8 | 82 | COc1cc([C@@H]2CC(=O)c3c(O)cc(O)cc3O2)ccc1O (racemic) [HOMOERIODICTYOL] | – | 89.1 | 74.9 | –
9 | – | CC1=NN(c2ccccc2)C(=O)C1 [EDARAVONE] | – | – | – | 93.2
10 | – | COc1cc(C2CC(=O)c3c(O)cc(O)c(CC=C(C)C)c3O2)ccc1O (centres undefined) | Dose-dependent effect | 94 | – | –
11 | – | CC(C)=CCc1c(O)cc(O)c2c1O/C(=C\c1ccc(O)cc1O)C2=O | – | 90.4 | 30.5 | –
12 | 8.5 | CC(C)=CCc1c(O)cc(O)c(C(=O)/C=C/c2ccc(O)cc2)c1O [DEMETHYLXANTHOHUMOL] | – | 86.7 | 81.4 | –
13 | – | CC(C)=CCc1c(O)cc(O)c2c1O/C(=C\c1ccc(O)cc1)C2=O | – | 81.6 | 74.5 | –
14 | – | CC(C)=CCc1c(O)cc(O)c2c1OC(c1ccc(O)c(O)c1O)CC2=O (centres undefined) | – | 90.3 | 69.7 | –
15 | – | O=c1c(O)c(-c2ccc(O)c(O)c2)oc2cc(O)cc(O)c12 [QUERCETIN] | – | – | 91.3 | –
